According to US7015211B2 (Yale University, priority 2003, dated 2006):
Values joined by “and” are separate entries in the source; they are usually repeats but may differ in a detail not shown here. Equal values may be shown once. “Also recorded” adds a separate entry of the source. Read-outs that look alike come from different tables or passages of the source. Marks after values point to notes of the source that are not given here.

Experiments:
[1] = tested on: human endometrial adenocarcinoma cells (Ishikawa); test: Estrogenic potency in Ishikawa cells, induction of alkaline phosphatase (AlkP); format: cell-based; conditions: for Ishikawa cell AlkP (RSA): relative stimulatory activity = EC50 of E2 / EC50 of analog x 100, E2 = 100, 3 days, ± SD
Protocol: Estrogenic Potency in Ishikawa Cells. The estrogenic potency of the E2-analogs was determined in an estrogen bioassay, the induction of alkaline phosphatase (AlkP) in human endometrial adenocarcinoma cells (Ishikawa) grown in 96-well microtiter plates as we have previously described.^38 In short, the cells are grown in phenol red free medium with estrogen depleted (charcoal stripped) bovine serum in the presence or absence of varying amounts of the steroids, across a dose range of at least 6 orders of magnitude. […] After 3 days, the cells are washed, frozen and thawed, and then incubated with 5 mM p-nitrophenyl phosphate, a chromogenic substrate for the AlkP enzyme, at pH 9.8. To ensure linear enzymatic analysis, the plates are monitored kinetically for the production of p-nitrophenol at 405 nm. […] Each compound was analyzed in at least 3 separate experiments performed in duplicate.

[2] = tested on: esterase, rat hepatic microsomes; test: Esterase hydrolysis in rat hepatic microsomes; format: in vitro ADME
Protocol: Esterase. Esterase activity was measured in rat hepatic microsomes essentially using the conditions described^41 with some minor modifications. Briefly, rat hepatic microsomes were incubated with 50 μM E2-alkyl ester. Since the rates of reaction are widely different for the various esters, the incubation times and enzyme concentration were varied accordingly to obtain linear kinetics. In every experiment, E16-1,2 was run concurrently to normalize the rate of hydrolysis of each compound. At several appropriate time points during the incubation (37° C.), 100 μL aliquots were quenched with a solution of 2 μg of the internal standard, 6-ketoestradiol in 33 μL of CH3CN, 33 μL of THF and 5 μL of glacial HOAc. The mixture was centrifuged and analyzed for the esterase-hydrolysis product (the corresponding E2-carboxylic acid) by reversed phase HPLC: E16-1,0; E15-1,0; E15-2,0; and E15-3,0 by HPLC with system H-29. Peaks for the hydrolysis product (E16-1,0 tR=10.7 min; E15-1,0 tR=6.9 min; E15-2,0 tR=9.9 min; E15-3,0 tR=14 min;) and the internal standard (tR=11.8 min for system H-29 and tR=8.8 min for system H-30 were quantified at 280 nm on the HPLC UV detector. The UV absorbance was converted to nmoles of product by comparison to standard curves and corrected for recovery of the internal standard, 6-ketoestradiol. The velocity of the reaction for each ester, in nmol product/min/mg protein, was then normalized to the ester, E16-1,2 and is shown in Table 1 as relative hydrolytic activity (RHA) The enzymatic velocity for the hydrolysis of E16-1,2 was 2.34±0.8 (S.D.) nmol product/min/mg protein over the various experiments. All compounds were tested in triplicate in at least 2 separate experiments

[3] = molecular target: T1, ER (ERα) in uterine cytosol (Rattus norvegicus, UniProt P06211); test: Competitive binding to the estrogen receptor in rat uterine cytosol; conditions: for Estrogen Receptor (RBA): relative binding affinity, E2 = 100, rat uterine cytosol, 1 nM [3H]E2, ± SD; for RBA: relative to E2
T1 sequence (P06211 1-600): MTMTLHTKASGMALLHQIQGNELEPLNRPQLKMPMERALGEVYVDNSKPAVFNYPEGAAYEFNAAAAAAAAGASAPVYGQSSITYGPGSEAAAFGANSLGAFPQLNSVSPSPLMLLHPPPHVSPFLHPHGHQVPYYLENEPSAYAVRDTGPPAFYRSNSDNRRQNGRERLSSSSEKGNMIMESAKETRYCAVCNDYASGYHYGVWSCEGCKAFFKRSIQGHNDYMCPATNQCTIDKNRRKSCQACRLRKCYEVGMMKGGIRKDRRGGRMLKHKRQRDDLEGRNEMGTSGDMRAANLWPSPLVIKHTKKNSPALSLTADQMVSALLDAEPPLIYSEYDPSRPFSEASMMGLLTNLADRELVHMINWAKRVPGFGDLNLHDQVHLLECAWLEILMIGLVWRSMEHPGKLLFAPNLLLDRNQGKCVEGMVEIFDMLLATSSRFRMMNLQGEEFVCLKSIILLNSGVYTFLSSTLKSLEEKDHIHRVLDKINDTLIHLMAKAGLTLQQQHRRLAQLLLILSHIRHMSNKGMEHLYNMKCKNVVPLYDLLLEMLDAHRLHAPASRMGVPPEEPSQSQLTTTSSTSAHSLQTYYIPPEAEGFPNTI

[4] = molecular target: T2, ligand binding domain (LBD) of human ERα (M250-V595) (Homo sapiens, UniProt P03372); test: Competitive binding to the LBD of human ERα in E. coli lysates; conditions: for selectivity / preference for ERα: ERα versus ERβ LBD; for ERα RBA: RBA compared to E2 (=100), LBD of human ERα in E. coli lysates, [3H]E2; for ERα RBA / ERα/ERβ (ratio of RBA): ± SD; for ERα/ERβ (ratio of RBA): human LBDs
T2 construct: human ERα (M250-V595); made in house; host or cells: Escherichia coli (lysate used)
T2 sequence (P03372 250-595): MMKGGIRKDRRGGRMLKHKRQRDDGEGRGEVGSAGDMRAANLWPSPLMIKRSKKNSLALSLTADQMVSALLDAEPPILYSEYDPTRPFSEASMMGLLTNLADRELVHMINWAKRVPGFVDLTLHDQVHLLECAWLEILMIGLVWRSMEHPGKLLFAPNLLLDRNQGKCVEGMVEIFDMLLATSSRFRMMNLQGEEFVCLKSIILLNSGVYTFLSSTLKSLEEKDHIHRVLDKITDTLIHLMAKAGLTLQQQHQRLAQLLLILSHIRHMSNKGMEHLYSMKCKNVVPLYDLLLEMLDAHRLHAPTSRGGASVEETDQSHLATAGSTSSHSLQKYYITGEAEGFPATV

[5] = molecular target: T3, ligand binding domain (LBD) of human ERβ (M214-Q530) (Homo sapiens, UniProt Q92731); test: Competitive binding to the LBD of human ERβ in E. coli lysates; conditions: RBA compared to E2 (=100), [3H]E2, ± SD
T3 construct: human ERβ (M214-Q530); made in house; host or cells: Escherichia coli (lysate used)

uterus of immature rats = test: In vivo estrogen bioassay: uterine weight (uterotrophic assay, systemic); parameters: species or system rat; conditions: for uterotrophic response (in words) / Uterotrophic R.A × 10^3: 100 μg dose; for Uterotrophic R.A × 10^3: activity relative to E2, × 10^3
Protocol: In Vivo Estrogen Bioassays: Uterine Weight. […] Control animals received sesame oil. On the fourth day, the animals were killed, the uteri were removed, dissected, blotted and weighed. Except where noted, each compound was assayed in 2 separate experiments with n=5.

[6] = tested on: vagina of ovariectomized mice; test: In vivo estrogen bioassay: vaginal reductases (local); parameters: species or system mouse; conditions: for Vaginal R.A × 10^3: activity relative to E2, × 10^3, 50 ng dose
Protocol: In Vivo Estrogen Bioassays: Vaginal reductases. […] The formazan product in the organic extract is quantified at 500 nm. Except where noted, each compound was assayed on at least 2 separate occasions with at least 5–6 replicates each time.

[7] = n.s. = not significantly different from the control

T3 sequence (Q92731 214-530): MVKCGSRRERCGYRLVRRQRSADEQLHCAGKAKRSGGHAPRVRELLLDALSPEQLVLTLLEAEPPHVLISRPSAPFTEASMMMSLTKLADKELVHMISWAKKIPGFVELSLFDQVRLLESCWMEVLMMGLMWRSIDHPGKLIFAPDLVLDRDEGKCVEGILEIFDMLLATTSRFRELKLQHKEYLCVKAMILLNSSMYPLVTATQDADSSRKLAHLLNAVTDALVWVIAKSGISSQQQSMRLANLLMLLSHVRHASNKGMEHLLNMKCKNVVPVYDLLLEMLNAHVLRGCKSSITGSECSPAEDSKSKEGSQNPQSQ

Row | Compound | Ishikawa cell AlkP (RSA) [1] | Esterase (RHA) [2] | Estrogen Receptor (RBA) [3] | other results
1 | CCOC(=O)C[C@H]1C[C@H](O)[C@@]2(C)CC[C@@H]3c4ccc(O)cc4CC[C@H]3[C@H]12 [E15-2,2, Ethyl(3,17β-dihydroxyestra-1,3,5(10)-trien-15α-yl)acetate] | 0.4 ± 0.5 | 71 ± 7 | 2 ± 0 | RBA [3]: 2%
2 | CCCCOC(=O)[C@H]1C[C@H](O)[C@@]2(C)CC[C@@H]3c4ccc(O)cc4CC[C@H]3[C@H]12 [E15-1,4, Butyl(3,17β-dihydroxyestra-1,3,5(10)-trien-15α-yl)formate] | 0.7 ± 0.4 | 7 ± 0.5 | 8 ± 2 | –
3 | COC(=O)C[C@H]1C[C@H](O)[C@@]2(C)CC[C@@H]3c4ccc(O)cc4CC[C@H]3[C@H]12 [E15-2,1, Methyl(3,17β-dihydroxyestra-1,3,5(10)-trien-15α-yl)acetate] | 1 ± 1 | 31 ± 6 | 5 ± 3 | RBA [3]: 5%
4 | CCOC(=O)CC[C@H]1C[C@H](O)[C@@]2(C)CC[C@@H]3c4ccc(O)cc4CC[C@H]3[C@H]12 [E15-3,2, Ethyl 3-(3,17β-dihydroxyestra-1,3,5(10)-trien-15α-yl)propionate] | 0 | 674 ± 14 | <0.1 | –
5 | C[C@]12CC[C@@H]3c4ccc(O)cc4CC[C@H]3[C@@H]1[C@@H](CCC(=O)O)C[C@@H]2O [E15-3,0, 3-(3,17β-Dihydroxyestra-1,3,5(10)-trien-15α-yl)propionic acid] | 0 | – | 0 | –
6 | CCOC(=O)[C@@H]1C[C@H]2[C@@H]3CCc4cc(O)ccc4[C@H]3CC[C@]2(C)[C@H]1O [E16-1,2, reference compound] | – | – | – | selectivity / preference for ERα [4]: ~95 fold; ERα RBA [4]: 27 ± 6; ERα/ERβ (ratio of RBA) [4]: 95 ± 47; ERβ RBA [5]: 0.3 ± 0.1; enzymatic velocity for the hydrolysis ([2]; rat hepatic microsomes, 50 μM ester, 37° C., ± S.D. over the various experiments): 2.34±0.8 nmol product/min/mg protein
7 | C[C@]12CC[C@@H]3c4ccc(O)cc4CC[C@H]3[C@@H]1[C@@H](CC(=O)O)C[C@@H]2O [E15-2,0, (3,17β-Dihydroxyestra-1,3,5(10)-trien-15α-yl)acetic acid] | 0.2 ± 0.2 | – | <0.1 | –
8 | CCOC(=O)[C@H]1C[C@H](O)[C@@]2(C)CC[C@@H]3c4ccc(O)cc4CC[C@H]3[C@H]12 [E15-1,2, Ethyl(3,17β-dihydroxyestra-1,3,5(10)-trien-15α-yl)formate] | 18 ± 10 | 2.3 ± 0.1 | 25 ± 12 | selectivity / preference for ERα [4]: about 3 fold; ERα RBA [4]: 22 ± 5; ERα/ERβ (ratio of RBA) [4]: 3 ± 0.6; ERβ RBA [5]: 7 ± 2; RSA ([1]; relative to E2): 18%; uterotrophic response (in words) (uterus of immature rats): neither of these 15α-substituted estrogens produced a statistically significant uterotrophic response; also recorded: neither of these 15α-alkyl esters produce a statistically significant estrogenic response in the uterus; also recorded: inactive in the uterotrophic assay; uterotrophic stimulation at 300 μg dose, equivalent ng of E2 (uterus of immature rats; 300 μg dose, statistically significant (P<0.05)): 5 ng of E2; Uterotrophic R.A × 10^3 (uterus of immature rats; [7]): n.s.; Vaginal R.A × 10^3 [6]: 0.42; activity in the vaginal assay (in words) ([6]; mouse, in vivo): very active in the vaginal assay; RBA [3]: 25%
9 | C[C@]12CC[C@@H]3c4ccc(O)cc4CC[C@H]3[C@@H]1C[C@@H](C(=O)OCCF)[C@@H]2O [E16-1,2F1, reference compound] | – | – | – | uterotrophic response (in words) (uterus of immature rats): small but statistically significant response; Uterotrophic effect 100 μg dose (ng E2 equivalent) (uterus of immature rats; 100 μg total dose s.c. over 3 days, immature rats, compared to 5 ng E2, brackets = range, n.s. = not significantly different from the control): 2 ng E2 equivalent and 2^b ng E2 equivalent; Uterotrophic R.A × 10^3 (uterus of immature rats; [7]): 0.02; Vaginal effect 50 ng dose (pg E2 equivalent) ([6]; 50 ng instilled into the vagina, ovariectomized mice, compared to 50 pg E2, brackets = range): 21^b pg E2 equivalent; Vaginal R.A × 10^3 [6]: 0.42
10 | CC(C)OC(=O)[C@H]1C[C@H](O)[C@@]2(C)CC[C@@H]3c4ccc(O)cc4CC[C@H]3[C@H]12 [E15-1,3i, Isopropyl(3,17β-dihydroxyestra-1,3,5(10)-trien-15α-yl)formate] | 0.3 ± 0.06 | 0.4 ± 0.1 | 5 ± 4 | RHA ([2]; rat, 50 μM): 0.3%
11 | COC(=O)CC[C@H]1C[C@H](O)[C@@]2(C)CC[C@@H]3c4ccc(O)cc4CC[C@H]3[C@H]12 [E15-3,1, Methyl 3-(3,17β-dihydroxyestra-1,3,5(10)-trien-15α-yl)propionate] | 0 | 248 ± 26 | 0.8 ± 0.1 | –
12 | CCCOC(=O)[C@H]1C[C@H](O)[C@@]2(C)CC[C@@H]3c4ccc(O)cc4CC[C@H]3[C@H]12 [E15-1,3, Propyl(3,17β-dihydroxyestra-1,3,5(10)-trien-15α-yl)formate] | 2 ± 1 | – | 17 ± 5 | –
13 | C[C@]12CC[C@@H]3c4ccc(O)cc4CC[C@H]3[C@@H]1[C@@H](C(=O)O)C[C@@H]2O [E15-1,0, 3,17β-Dihydroxyestra-1,3,5(10)-trien-15α-carboxylic acid] | – | – | – | estrogenic activity in the Ishikawa cell assay (in words) [1]: nor does it have estrogenic activity; also recorded: very low, not measurable; binding to the estrogen receptor (in words) [3]: does not bind to the estrogen receptor; also recorded: very low, not measurable
14 | 2′-Fluoroethyl(3,17β-dihydroxyestra-1,3,5(10)-trien-15α-yl)formate [E15-1,2F1] | 3 ± 0.2 | – | – | Esterase (RHA) ([2]; relative hydrolytic activity in comparison to E16-1,2 (=100), 50 μM ester, 37° C., ± SD): 4.5 ± 0.1
15 | C[C@]12CC[C@@H]3c4ccc(O)cc4CC[C@H]3[C@@H]1CCC2=O [Compound E1, estrone, reference compound] | 4 ± 2 | – | – | –
